Experiment [1] has as its system recombinant RyR1 cells (RyR1-Rec murine myotubes). As to conditions: 72 h, 0.1 µM.
Procedure: The satellite cells were isolated from the skeletal muscles of the lower limbs of the neonate mice RyR1^Ctrl according to the procedure described in Marty et al, 2000.
The cells were seeded in 96 well plates (75,000 cells/well) previously coated with laminin. The cells were first cultured in the proliferation medium composed of Ham's F-10 Nutrient Mix (Life Technologies), 20% fetal calf serum (Life Technologies), 2% Ultroser G (PALL) and 2% Penicillin-Streptomycin (Life Technologies).
In order to induce floxed RyR1 gene recombination, the cells thus have been transduced 12 hours after seeding with adenoviruses allowing the expression of Cre recombinase, AdV-Cre (Utah University), to a multiplicity of infections (multiplicity of infection, or MOI) of 64. […]
The films were analyzed by the Fiji (Schindelin et al., 2012) and Prim (GraphPad) softwares.
For murine cells, the fluorescence measurements were performed on regions of interest each corresponding to a myotube, with several tens of myotubes measured for each repetition of the experiment.
The intensity of the calcium release was evaluated in response to a stimulation by KCl 140 mM (mimicking a depolarization at ˜0 mV). […]
Experiment [2] relates to immortalized human MELA cells. The experiment can be described thus: Calcium imaging (Fluo-4, KCl 140 mM stimulation) on cells of a central core disease patient. The experiment is classed as cell-based. The settings on record: 7 days in differentiation medium, not statistically significant. The text has this:
The MELA cells are immortalized human cells derived from a biopsy of a patient suffering from central core disease, including in particular a quantitative defect of RyR1 and a calcium release defect (Rendu et al., 2013). These cells were immortalised by the team of Vincent Mouly (Institute of Myology, Paris).
(§1) The medium has been renewed 4 days after placing in the differentiation medium.
(§2) For human cells, the shape of the cells not allowing them to be distinguished individually in an accurate manner, the measurements were made on a single region of interest per well corresponding to the total surface covered by the myotubes. 4 to 6 wells were measured for each repetition of the experiment.
(§3) Fulvestrant was tested on human muscle cells having or not a calcium release defect (human cells CTRL or MELA), by incubation of 7 days in differentiation medium.

Another experiment concerns human control cells CTRL. The experiment can be described thus: Calcium imaging (Fluo-4, KCl 140 mM stimulation) on human control muscle cells. The experiment is classed as cell-based. As to conditions: 7 days in differentiation medium. As to the method:
The CTRL cells are immortalized human cells from a biopsy of a healthy subject having no calcium release abnormality.
as §1, §2, §3

For experiment [3], the system named is RyR1^Rec mice (model of central core disease). The experiment in a line: Animal grip test (gripping time on inverted grid) in inducible RyR1 KO mice. The experiment is classed as in vivo.
Procedure: For this study, an inducible and non-lethal model of KO mice for RyR1 developed in the laboratory was used. In these mice, exons 9 to 11 of the RYR1 gene are flanked by LoxP sites on both alleles (RYR1 fl/fl).
KO was induced by intraperitoneal injections of tamoxifen (Sigma) eight weeks after birth, at 1 mg/day for five days. It is important to note that all animals have received these injections, whether they have the HSA-Cre allele or not.
Exclusively in animals having the HSA-Cre allele, tamoxifen (TAM) causes the translocation of the Cre recombinase to the nucleus, thus allowing the recombination of the LoxP sites and the deletion of exons 9-11 from the RYR1 gene (FIG. 1). In order to improve the understanding, the mice in which the recombination cannot be made will be referred to as the RyR1^Ctrl mice in the following document. The recombinant mice after intraperitoneal administration of TAM will be referred to as RyR1^Rec mice.
For the treatment of animals, fulvestrant was prepared from a commercial solution of Faslodex 250 mg (AstraZeneca). This solution was diluted in physiological serum and 0.27 mg of fulvestrant was injected to each mouse (weight of 20 g) in 50 μl volume. The injections were carried out intramuscularly in the quadriceps once per week.
In order to evaluate the muscular strength of the animals, the mice were placed on a grid which was then turned upside down. The duration during which the mice remain gripped at the grid has been timed to a limit of 300 seconds. This measurement was carried out in a weekly manner over the entire population of mice of the study.
The strength of the animals is followed by a grip test (gripping test) once a week, just before the injections.

This note sets out measurements from patent US20220175795A1, “USE OF FULVESTRANT FOR THE THERAPEUTIC CARE OF CENTRAL CORE DISEASE” (UNIVERSITÉ GRENOBLE ALPES, priority 2019, published 2022).

Entries after “also recorded” stand apart in the source; their conditions may differ.

As for `C[C@]12CC[C@@H]3c4ccc(O)cc4C[C@@H](CCCCCCCCC[S+]([O-])CCCC(F)(F)C(F)(F)F)[C@H]3[C@@H]1CC[C@@H]2O` (some centres unmarked) [fulvestrant], the “increase of the calcium release peak vs untreated cells” value in experiment [1] is on record as 28%. In experiment [1], the “magnitude of the calcium release peak (Fluo-4 fluorescence)” value is 0.40+/−0.04. In addition, the “effect on calcium release” value in experiment [2] (fulvestrant 100 nM) is reported as “tends to increase calcium release; also recorded: tendency to improve the calcium release”; in experiment [2] (fulvestrant 250 nM) it was “tends to increase the release of calcium”; in the experiment with human control cells CTRL (fulvestrant 100 nM) it was “has no effect; also recorded: does not have an effect”; in the experiment with human control cells CTRL (fulvestrant 250 nM) it was “has no effect; also recorded: does not have any effect”. Also, the “strength (gripping time) vs untreated mice” value in experiment [3] (female RyR1^Rec mice, intramuscular injection once a week, grip test weekly (limit 300 seconds)) was “very sharp improvement; also recorded: significantly improved”. Moreover, the “strength over the entire duration of the treatment” value in experiment [3] (mice with induced central core disease, 75 days of treatment) is on record as “did not lose strength”.
